The values below come from PubChem BioAssay (NCI).

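Dose response: 5 concentrations. Exposure: 48 h. Format: 96-well plates. Endpoint: linear interpolation; highest concentration if not reached. At the GI50, growth is halved. The concentration for full growth arrest is given as TGI.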

Test systems include A498 renal; COLO 205 colon; HOP-92 NSCLC; KM12 colon; NCI-H23 lung; SW-620 colon; TK-10 renal; UO-31 renal; PC-3 prostate.
What all share (assay): NCI tumour cell line growth inhibition, 48 h

For `O=C1C=C2CCCC2C(C(=O)O)(C(=O)O)C1` (stereo not given), the TGI with A498 renal, in the test on COLO 205 colon, in the test on HOP-92 NSCLC, in the test on KM12 colon, in the test with NCI-H23 lung and in the test with SW-620 colon was more than 100 µM each time. For the same compound, the TGI with TK-10 renal and with UO-31 renal was more than 100 µM throughout.
Take `COc1ccc(O)cc1C(O)c1ccccc1` (stereo not given): the TGI in the test with A498 renal, in the test with COLO 205 colon, in the test with HOP-92 NSCLC, in the test on KM12 colon, in the test with NCI-H23 lung and in the test on SW-620 colon was more than 100 µM each time. Further, the TGI in the test on TK-10 renal and in the test on UO-31 renal was more than 100 µM each time.
For the compound `O=C(N/C(=C\c1ccccc1O)c1nc2ccccc2[nH]1)c1ccccc1`, the TGI in the test with A498 renal, with COLO 205 colon, with HOP-92 NSCLC, in the test on KM12 colon, in the test with NCI-H23 lung and in the test on SW-620 colon was more than 100 µM each time. For the same compound, the values for the TGI in the test with TK-10 renal and in the test on UO-31 renal were 90.8 µM and more than 100 µM, respectively.
With `COc1cc2c3c(n(CCCNCCCNCCN)c(=O)c2cc1OC)-c1cc2c(cc1C3=O)OCO2`, the GI50 with A498 renal was more than 100 µM; in the test with COLO 205 colon, 23.8 µM; in the test with HOP-92 NSCLC, 39.7 µM; with KM12 colon it was 85 µM; in the test with NCI-H23 lung it was 24.7 µM; with SW-620 colon, 30.8 µM. The GI50 in the test on TK-10 renal is 53.7 µM; in the test with UO-31 renal, more than 100 µM. The TGI in the test on A498 renal was more than 100 µM; in the test on COLO 205 colon, more than 100 µM; with HOP-92 NSCLC it was more than 100 µM; in the test with KM12 colon, more than 100 µM; with NCI-H23 lung it was 78.7 µM; in the test with SW-620 colon, more than 100 µM. Also, the TGI in the test on TK-10 renal and in the test with UO-31 renal was more than 100 µM in each case.
In the case of `COc1c(I)c(OC)c2c(c1I)O[C@@H]1OCC[C@H]21`, the TGI is 86 µM in the test on A498 renal; 57.8 µM in the test with COLO 205 colon; 67.1 µM with HOP-92 NSCLC; 82.6 µM in the test on KM12 colon; more than 100 µM with NCI-H23 lung; more than 100 µM in the test with SW-620 colon. Further, the results for the TGI in the test with TK-10 renal and in the test with UO-31 renal were more than 100 µM and 66.3 µM, respectively.
For `C[N+](C)(C)c1cc[c]([Sn]([c]2ccc([N+](C)(C)C)cc2)([c]2ccc([N+](C)(C)C)cc2)[c]2ccc([N+](C)(C)C)cc2)cc1`, the GI50 in the test on A498 renal, in the test with COLO 205 colon, in the test on HOP-92 NSCLC, in the test on KM12 colon, with NCI-H23 lung and with SW-620 colon was more than 100 µM throughout. In addition, the GI50 in the test on TK-10 renal and in the test with UO-31 renal was more than 100 µM throughout. Further, the TGI in the test with A498 renal, with COLO 205 colon, with HOP-92 NSCLC, in the test with KM12 colon, in the test with NCI-H23 lung and in the test on SW-620 colon was more than 100 µM throughout. For the same compound, the TGI in the test with TK-10 renal and with UO-31 renal was more than 100 µM each time.
As to `O=C(CCC(=O)Nc1cccc(C(F)(F)F)c1)CC(=O)c1ccc2ccccc2c1`, the TGI with A498 renal, in the test on COLO 205 colon, in the test on HOP-92 NSCLC, with KM12 colon, in the test on NCI-H23 lung and in the test on SW-620 colon was more than 100 µM throughout. In addition, the TGI with TK-10 renal and in the test on UO-31 renal was more than 100 µM in each case.
Regarding `C/C=C/C(=O)[O-].C/C=C/C(=O)[O-].N.N.N.N.[Co+3].[O-][Cl+3]([O-])([O-])[O-]`, the GI50 in the test on A498 renal, with COLO 205 colon, in the test with HOP-92 NSCLC, with KM12 colon, with NCI-H23 lung and in the test on SW-620 colon was more than 100 µM each time. The GI50 with TK-10 renal and in the test on UO-31 renal was more than 100 µM throughout. In addition, the TGI in the test on A498 renal, with COLO 205 colon, in the test with HOP-92 NSCLC, in the test on KM12 colon, in the test on NCI-H23 lung and in the test with SW-620 colon was more than 100 µM in each case. The TGI in the test with TK-10 renal and in the test with UO-31 renal was more than 100 µM throughout.
As for `COCCc1n(Cc2ccc3ccccc3c2)c2ccccc2[n+]1Cc1ccc2ccccc2c1`, the GI50 in the test on A498 renal is 1.54 µM; in the test on HOP-92 NSCLC, 0.214 µM; in the test with KM12 colon, 0.415 µM; with PC-3 prostate, 0.412 µM; in the test on SW-620 colon it was 1.11 µM; in the test with TK-10 renal, 1.26 µM. In addition, the GI50 in the test with UO-31 renal was 1.48 µM. In addition, the TGI in the test on A498 renal came out at 2.98 µM; with HOP-92 NSCLC it was 1.13 µM; in the test on KM12 colon, 1.64 µM; in the test with PC-3 prostate, 1.62 µM; in the test on SW-620 colon it was 2.59 µM; in the test on TK-10 renal it was 2.65 µM. For the same compound, in the test with UO-31 renal, the TGI was determined as 2.88 µM.
Turning to `Nc1nc2c(-c3ccc([N+](=O)[O-])cc3)nnn2c2ccccc12`, the TGI in the test with A498 renal, in the test with COLO 205 colon, with HOP-92 NSCLC, in the test on KM12 colon, with NCI-H23 lung and in the test with SW-620 colon was more than 100 µM each time. Besides, the figures for the TGI with TK-10 renal and with UO-31 renal were 48.9 µM and more than 100 µM, respectively.
